In PMC8434204, “Discrimination of Methionine Sulfoxide and Sulfone by Human Neutrophil Elastase” (Molecules, 2021):
Like-named read-outs stand apart in the source and are kept apart here. Square brackets hold non-standard residues; d marks the D form. Peptide text beside a SMILES is read from it. * marks the point of attachment. Met(O2) = CS(=O)(=O)CC[C@H](N)C(=O)O; Met(O) = CS(=O)CC[C@H](N)C(=O)O; pNA = O=[N+]([O-])c1ccc(N*)cc1; MeOSuc = COC(=O)CCC(=O)*

Tests used:
[1] = biological target: T1, Human neutrophil elastase (HNE) (Homo sapiens, UniProt P08246); assay: Kinetic assays of synthesized pNA substrates (Michaelis-Menten); type: biochemical
T1 construct: HNE purified from purulent human sputum (Elastin Products Company, Owensville, MO, USA); purchased Elastin Products Company, Owensville, MO, USA; host or cells: purulent human sputum (natural source)
T1 sequence (P08246 30-247 limits assumed): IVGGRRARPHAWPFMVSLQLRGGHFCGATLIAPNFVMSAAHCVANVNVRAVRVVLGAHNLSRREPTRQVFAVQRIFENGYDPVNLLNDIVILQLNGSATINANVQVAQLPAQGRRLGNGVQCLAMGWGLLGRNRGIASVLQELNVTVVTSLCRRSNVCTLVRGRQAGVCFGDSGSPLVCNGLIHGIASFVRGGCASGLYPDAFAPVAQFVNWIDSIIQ
Experimental: Figure 2 Substrate concentration versus velocity plot of candidate pNA substrates containing a P1 valine residue (A), or a P1 alanine residue (B), assayed against 3 nM active HNE. […] Data points represent the average rate observed from three replicate experiments of triplicate measurements. […] Error bars show SEM. Where not visible, error bars are smaller than the pictured data point.
(§1) For substrate library kinetic assay screen, reactions were initiated by addition of HNE purified from purulent human sputum (Elastin Products Company, Owensville, MO, USA) to triplicate microplate wells containing each substrate, and the rate of reaction determined spectrophotometrically at 405 nm. Final concentrations were 300 µM substrates and 1 µg/mL HNE in 250 µL assay buffer (100 mM Tris pH 8, 50 mM NaCl, 10% DMF, 0.05% Triton X-100). For in-depth assays of candidate substrates and inhibitors, the active site concentration of HNE was first determined by titration with A1AT. Briefly, 250 nM A1AT was serially diluted in a 96-well microplate to provide a final assay volume of 250 µL. A total of 2.5 µL of HNE stock solution (100 µg/mL) was added to each well and complex formation was allowed to proceed over a period of 20 min at RT. Assays were initiated by addition of Ac-RM(O2)PA-pNA substrate, monitoring the evolution of free para-nitroanilide at 405 nm for 90 s again at RT. Kinetic assays of synthesized pNA substrates were carried out similarly omitting the A1AT and serially diluting the substrates, KM and Vmax values were determined by GraphPad Prism 5.01 (La Jolla, CA, USA) Michaelis–Menten non-linear regression. Assays with peptide aldehyde inhibitors were carried out as with the active site titration. Inhibition constants were calculated in GraphPad Prism by non-linear regression using the Morrison equation for tight-binding inhibitors.

[2] = biological target: T1, Human neutrophil elastase (HNE); conditions: literature value; read-out: KM, previously published value; cited from earlier work
From the text: The standard substrate MeOSuc-AAPV-pNA was also synthesised to provide a benchmark against other studies. […] Acetylated forms of the P4 arginine substrates were synthesised to assess the effect of a charged N-termin ...

[3] = biological target: T1, Human neutrophil elastase (HNE); assay: Inhibition of HNE proteolysis by peptide aldehyde inhibitors; type: biochemical; conditions: for Ki: 10 nM active HNE, 100 nM Ac-RM(O2)AA-pNA substrate (Figure 3), 20 min complex formation at RT, 405 nm, Morrison equation for tight-binding inhibitors, three replicate experiments of triplicate measurements; for Relative Potency (fold inhibition enhancement relative to Ac-RMAV-H): ratio of Ki values relative to non-oxidised Ac-RMAV-H
Experimental: Figure 3 Dose-response plot of Ac-RMAV-H peptide aldehyde inhibitor variants containing differing oxidation states of the P3 methionine residue. All assays contained 10 nM active HNE and 100 nM Ac-RM(O2)AA-pNA substrate. Data are reported as percent activity remaining compared to uninhibited controls, and data points represent the mean observed from three replicate experiments of triplicate measurements. Error bars show SEM. Where not visible, error bars are smaller than the pictured data point.
as §1

Ki [3] [µM] | Relative Potency (fold inhibition enhancement relative to Ac-RMAV-H) [3] | Compound | kcat ([1]; 3 nM active HNE (purified from purulent human sputum), 100 mM Tris pH 8, 50 mM NaCl, 10% DMF, 0.05% Triton X-100, RT, 405 nm, Michaelis-Menten non-linear regression, three replicate experiments of triplicate measurements) [s⁻¹] | Km ([1]; 3 nM active HNE, 100 mM Tris pH 8, 50 mM NaCl, 10% DMF, 0.05% Triton X-100, RT, 405 nm, Michaelis-Menten non-linear regression, ± SEM) [µM] | kcat/KM ([1]; catalytic efficiency calculated from kcat and KM, 3 nM active HNE) [M⁻¹ s⁻¹] | Km [2] [µM]
 |  | MeOSuc-AAPV-pNA (SMILES COC(=O)CCC(=O)N[C@@H](C)C(=O)N[C@@H](C)C(=O)N1CCC[C@H]1C(=O)N[C@H](C(=O)Nc1ccc([N+](=O)[O-])cc1)C(C)C) [standard HNE substrate synthesised as benchmark against other studies] | 2.90 | 153 ± 17.6 | 18900 | 140
0.147 | 49.4 | CC(=O)N[C@@H](CCCNC(=N)N)C(=O)N[C@@H](CCS(C)(=O)=O)C(=O)N[C@@H](C)C(=O)N[C@H](C=O)C(C)C [Ac-RM(O2)AV-H] (Ac-R[Met(O2)]AV-aldehyde) |  |  |  | 
7.27 | 1 | CSCC[C@H](NC(=O)[C@H](CCCNC(=N)N)NC(C)=O)C(=O)N[C@@H](C)C(=O)N[C@H](C=O)C(C)C [Ac-RMAV-H] (Ac-RMAV-aldehyde) |  |  |  | 
5.55 | 1.3 | CC(=O)N[C@@H](CCCNC(=N)N)C(=O)N[C@@H](CC[S+](C)[O-])C(=O)N[C@@H](C)C(=O)N[C@H](C=O)C(C)C (stereo partly shown) [Ac-RM(O)AV-H] (Ac-R[Met(O)]AV-aldehyde) |  |  |  | 
